From patent EP1210948B1, “THERAPEUTC PEPTIDE FOR NERVOUS DISEASES” (NIPPON CHEMIPHAR CO., LTD., priority 1999, dated 2007)
Where a SMILES comes first, the peptide text is derived from it.

What was measured:
[1] = test system: cells of rat cerebral cortex; assay: Action on glutamate-induced neurocyte disorder (in vitro), propidium iodide staining; format: cell-based; settings: for inhibitory action against neuronal death induced by glutamate: 4 day treatment, glutamate 1 mM
Experimental: The cerebral cortex of rat (0-day-old) was incubated at 37°C in a Hank's solution containing 1.5 mg/mL of dispase, and then cells were isolated. The neurocytes were dispersed on a poly-L-lysine-coated multiple well plate at a density of approx. 4 x 10^4 cells/cm^2, and then to the plate was added cytosine-β-arabinofuranoside (20 µM). The nerocytes were cultured on the plate for 4 days.
The nerocytes were identified by indirect fluorescent method using a neuro-filament antibody
The cultured neurocytes were washed with a Hank's solution and further incubated at 37°C for 30 minutes under atmospheric conditions. Incubated neurocytes were again incubated for 10 minutes in a Hank's solution containing glutamate. Then, they were washed, and further incubated for one hour. At 15 minutes before the incubation was complete, propidium iodide (4.6 µg/mL) was added. After the incubations were complete, the incubated neurocytes were washed with PBS (phosphate buffer solution containing sodium chloride), and then observed using fluorescence microscope.
The pGlu-Asn-Ser-Pro-Arg-Gly-NH2 acetate or AVP(4-9) was added to the 4 day-cultured solution prior to the glutamate treatment.

[2] = Toxicity test, subcutaneous injection; format: in vivo
Experimental: pGlu-Asn-Ser-Pro-Arg-Gly-NH2 acetate was subcutaneously injected to a SD strain rat at a dose of 1 mg/kg.

For `N=C(N)NCCC[C@H](NC(=O)[C@@H]1CCCN1C(=O)[C@H](CO)NC(=O)[C@H](CC(N)=O)NC(=O)[C@@H]1CCC(=O)N1)C(=O)NCC(N)=O` [pGlu-Asn-Ser-Pro-Arg-Gly-NH2 acetate] (HELM PEPTIDE1{[Glp].N.S.P.R.G.[am]}$$$$V2.0), the “inhibitory action against neuronal death induced by glutamate” value ([1]; 0.1 nM test substance) was “showed an inhibitory action”, the “inhibitory action against neuronal death induced by glutamate” value ([1]; 1 nM test substance) was “showed an inhibitory action” and the “inhibitory action against glutamate toxicity in the presence of V1 receptor antagonist [Pmp^1, Tyr(Me)^2]AVP” value ([1]; [Pmp^1, Tyr(Me)^2]AVP 0.1 nM) was “reduced”. For the same molecule, the “inhibitory action against glutamate toxicity in the presence of V1 receptor antagonist [Pmp^1, Tyr(Me)^2]AVP” value ([1]; [Pmp^1, Tyr(Me)^2]AVP 1 nM) was “reduced” and the “changes observed after subcutaneous injection” value ([2]; rat, in vivo, sc, 1 mg/kg) was “No noticeable changes were observed”.

For `N=C(N)NCCC[C@H](NC(=O)[C@@H]1CCCN1C(=O)[C@H](CO)NC(=O)[C@H](CC(N)=O)NC(=O)[C@@H]1CCC(=O)N1)C(=O)NCC(N)=O` [pGlu-Asn-Ser-Pro-Arg-Gly-NH2] (HELM PEPTIDE1{[Glp].N.S.P.R.G.[am]}$$$$V2.0), the “toxicity in the conventional toxicity test” value ([2]; summary statement) was “no specific toxicity”.

In the case of “[pGlu^4, Cyt^5] AVP (4-9) [AVP(4-9), reference compound]”, the “inhibition of the glutamate-induced neuronal death” value ([1]; 1 µM test substance) is reported as “inhibited” and the “inhibition of the glutamate-induced neuronal death” value ([1]; 10 µM test substance) is reported as “inhibited”.
